ChEMBL document CHEMBL1129205, “Small peptide inhibitors of 47 mediated MAdCAM-1 adhesion to lymphocytes” (Bioorg Med Chem Lett, 1996)

Assays:
HuT78 = assay: Compound was tested for inhibition of MAdCAM-1/alpha-4 beta-7 mediated cell adhesion to T-cell lymphoma, HUT78 cells; assay type: functional, cell-based; conditions: Homo sapiens
[1] = Inhibition of MAdCAM-1/alpha-4 beta7-mediated cell adhesion to T-cell lymphoma, HUT78 cells at 500 uM; assay type: functional; conditions: for inhibition at 500 µM: HuT78

Row | IC50 (HuT78) | Compound | inhibition at 500 µM [1] | Inhibition [1]
1 | > 1000 µM | CCCC(CCC)C(=O)N[C@@H](CC(C)C)C(=O)N[C@@H](CC(=O)O)C(=O)N[C@H](C(=O)N[C@@H](CO)C(=O)N[C@@H](CC(C)C)C(N)=O)[C@@H](C)O |  | 
2 |  | Ac-LYTSL-NH2 | 0% | 
3 |  | Ac-GLDTSLGS-NH2 | 28% | 
4 |  | CC(=O)N[C@@H](CC(C)C)C(=O)N[C@H](CC(=O)O)C(=O)N[C@H](C(=O)N[C@@H](CO)C(=O)N[C@@H](CC(C)C)C(N)=O)[C@@H](C)O | 0% | 
5 |  | CC(=O)N[C@@H](CCCN=C(N)N)C(=O)NCC(=O)N[C@@H](CC(C)C)C(=O)N[C@@H](CC(=O)O)C(=O)N[C@H](C(=O)N[C@@H](CO)C(=O)N[C@@H](CC(C)C)C(=O)NCC(N)=O)[C@@H](C)O (stereo in doubt; 10) |  | 36%
6 |  | Ac-LNTSL-NH2 | 0% | 
7 |  | Ac-LATSL-NH2 | 0% | 
8 |  | Ac-AAASL-NH2 | 0% | 
9 |  | Ac-HWRGLDTSLGSV-NH2 | 71% | 
10 |  | Ac-WRGLDTSL-NH2 | 52% | 
11 |  | Ac-HWRGLDTS-NH2 | 46% | 
12 |  | Ac-WRGLDTSLGS-NH2 | 71% | 
13 |  | CC(=O)N[C@@H](CCCN=C(N)N)C(=O)NCC(=O)N[C@@H](CC(C)C)C(=O)N[C@@H](CC(=O)O)C(=O)N[C@H](C(=O)N[C@@H](CO)C(=O)N[C@@H](CC(C)C)C(=O)NCC(N)=O)[C@@H](C)O (stereo in doubt; 4) |  | 75%
14 |  | Ac-RVHWAGLD-NH2 | 0% | 
15 | > 1000 µM | CC(C)C[C@H](NC(=O)[C@H](CO)NC(=O)[C@@H](NC(=O)[C@H](CC(=O)O)NC(=O)[C@H](CC(C)C)NC(=O)Cc1ccccc1)[C@@H](C)O)C(N)=O |  | 
16 | 18.6 µM | CC(C)C[C@H](NC(=O)[C@H](CO)NC(=O)[C@@H](NC(=O)[C@H](CC(=O)O)NC(=O)[C@H](CC(C)C)NC(=O)C1c2ccccc2-c2ccccc21)[C@@H](C)O)C(N)=O | 18.6% | 
17 |  | Ac-RVHWRGLDTSLGSVQ-NH2 | 88% | 
18 |  | Ac-VHWRGLDT-NH2 | 48% | 
19 |  | Ac-LDTSLGSV-NH2 | 16% | 
20 | > 1000 µM | CC(C)C[C@H](NC(=O)[C@H](CO)NC(=O)[C@@H](NC(=O)[C@H](CC(=O)O)NC(=O)[C@H](CC(C)C)NC(=O)C(C1CCCCC1)C1CCCCC1)[C@@H](C)O)C(N)=O |  | 
21 | 13.4 µM | CC(C)C[C@H](NC(=O)[C@H](CO)NC(=O)[C@@H](NC(=O)[C@H](CC(=O)O)NC(=O)[C@H](CC(C)C)NC(=O)C(c1ccccc1)c1ccccc1)[C@@H](C)O)C(N)=O | 13.4% | 
22 |  | Ac-ADTSL-NH2 | 3% | 
23 |  | Ac-DTSLGSVQ-NH2 | 0% | 

Row | Compound | IC50 (HuT78) | inhibition at 500 µM [1] | Inhibition [1]
24 | CC(C)C[C@H](NC(=O)[C@H](CO)NC(=O)[C@@H](NC(=O)[C@H](CC(=O)O)NC(=O)[C@H](CC(C)C)NC(=O)CCCc1ccc2ccc3cccc4ccc1c2c34)[C@@H](C)O)C(N)=O | 5 µM | 5% | 
